Reference: US8377914B2, “Method of inducing negative chemotaxis” (Celtaxsys, Inc., priority 2008, dated 2013)
Where two headings read alike, the source gives them in different places.

Test system: neutrophils
Test: Chemorepulsion assay of neutrophils in Neuroprobe ChemoTx plates, migrated cells quantified with Cell Titer Glo
Format: cell-based, human
Conditions: for Activity (chemorepulsive activity): screened at 3.7, 11.1, 33.3 and 100 uM
Protocol: The chemorepulsive activity of idebenone, benazepril, rolipram, moxonidine, lamivudine, calcitriol, calcipotriol, loxoprofen, terbinafine, Synephrine and 6-aminoindazole was determined as follows: • 1. Prior to beginning the assay, the following were prepared: • a. 0.5% Fetal Calf Serum (FCS) in Iscove's Modified Dulbecco's Medium (IMDM) (Assay Medium) (Both from ATCC). • b. Migratory cells at a concentration of 2×10^7 cells/ml in Assay Medium. • c. The indicated dilutions of the ligand of interest in Assay Medium were prepared. • 2. The assay plates are Neuroprobe ChemoTx plates, part number 206-3 (3 um pore size) for neutrophils. • 3. The plates were removed from packaging, leaving the membrane behind. • 4. 31 μl of the following solutions were pipetted into each well: • a. For media controls and for chemorepulsion samples, Assay Medium was used. • b. For chemoattraction samples, appropriate dilution of ligand was used. • 5. A sterile needle was used to pop any and all small bubbles present in each well. • 6. The membrane was carefully placed onto the plate, starting at one side and then slowly lowering the other edge onto the plate. • 7. 29 μl of the following were pipetted onto the top of each circle: • a. For media controls and chemoattraction (CA) samples, use Assay Medium. • b. For chemorepulsion (CR) samples, use the appropriate dilution of ligand. • 8. 2 μl of cells (40,000 cells) were added to each bubble of liquid from step 7. • 9. A needle was used to pop all air bubbles. • 10. The plate was covered with the supplied lid and incubated for the desired time at 37° C. in 5% CO2. Unless otherwise indicated, the incubation time was 1 hour for neutrophils and 3 hours for T cells. For monocytes and B cells, the incubation time was 2 hours. • 11. After the desired assay time, the liquid was removed from the top of the plate using a Kimwipe. At this point, the plate was stored (with the membrane in place) for up to 2 hours at 4° C. • 12. The membrane was carefully removed from the top of the plate and discard. The plate was examined under a microscope to look for ligand crystallization, contamination and overall migration. • 13. White read plates were preloaded with 25 ul PBS. • 14. Using a multichannel pipettor, 5 ul of Cell Titer Glo (Promega # G7572) was added to each well. • 15. Using a multichannel pipettor set at 30 ul, lysed cell solution was transferred to white read plates pre-loaded with PBS. • 16. The plate was read using the BioTek Synergy4 plate reader in order to quantify the number of migrated cells.
The calcitriol analogs listed below were screened at concentrations of 3.7, 11.1, 33.3 and 100 uM as described above for chemorepulsive activity (FIGS. 11-13).

[1] = Homo sapiens, Neutrophil, neutrophils, 0.1 uM, replicates, read-out: fold induction of chemorepulsion over media
[2] = Homo sapiens, Neutrophil, read-out: fold induction of chemorepulsion over media

In the case of `C=C1/C(=C\C=C2/CCC[C@]3(C)[C@@H]([C@H](C)CCCC(C)C)CC[C@@H]23)C[C@@H](O)C[C@@H]1O` [1α-hydroxycholecalciferol], the “Activity (chemorepulsive activity)” value (neutrophils) is reported as “No activity”.

`C=C1/C(=C\C=C2/CCC[C@]3(C)[C@@H]([C@H](C)/C=C/[C@H](C)C(C)C)CC[C@@H]23)C[C@@H](O)C[C@@H]1O` [1α-hydroxyvitamin D2] was tested, and the “Activity (chemorepulsive activity)” value (neutrophils) was “No activity”.

Molecule `Nc1ccc2c[nH]nc2c1` [6-aminoindazole] has a fold induction at 0.1 µM [1] greater than 3.

For `C=C1CC[C@H](O)C/C1=C/C=C1\CCC[C@]2(C)[C@@H]([C@H](C)CCCC(C)(C)O)CC[C@@H]12` [Calcefidiol], the “Activity (chemorepulsive activity)” value (neutrophils) was “No activity”.

`C=C1/C(=C\C=C2/CCC[C@]3(C)[C@@H]([C@H](C)/C=C/[C@@H](O)C4CC4)CC[C@@H]23)C[C@@H](O)C[C@@H]1O` [Calcipotriene] was tested, and the “Activity (chemorepulsive activity)” value (neutrophils) was “Chemorepellant”.

For `C=C1CC[C@H](O)C/C1=C/C=C1\CCC[C@]2(C)[C@@H]([C@H](C)/C=C/[C@H](C)C(C)C)CC[C@@H]12` [Vitamin D2, ergocalciferol], the “Activity (chemorepulsive activity)” value (neutrophils) was “Chemorepellant”.

With `C=C1CC[C@H](O)C/C1=C/C=C1\CCC[C@]2(C)[C@@H]([C@H](C)CCCC(C)C)CC[C@@H]12` [Vitamin D3, cholecalciferol] the “Activity (chemorepulsive activity)” value (neutrophils) was “Chemorepellant”.

Work on `CCOC(=O)[C@H](CCc1ccccc1)N[C@H]1CCc2ccccc2N(CC(=O)O)C1=O` [benazepril] yielded a fold induction at 0.92 µM [2] of roughly 2.

`C=C1/C(=C\C=C2/CCCC3(C)C2CCC3[C@@H](C)CCCC(C)(C)O)C[C@@H](O)CC1O` (stereo partly drawn) [calcitriol, 1,25-dihydroxyvitamin D] gave a fold induction at 100 µM (Homo sapiens, Neutrophil, neutrophils, 100 uM, read-out: fold induction of chemorepulsion over media) greater than 3.

For `CC(C(=O)O)c1ccc(CC2CCCC2=O)cc1` (stereo not drawn) [loxoprofen], the fold induction at 0.091 µM [2] was greater than 2.

`COc1nc(C)nc(Cl)c1NC1=NCCN1` [moxonidine] was tested, and the fold induction at 0.092 µM (Homo sapiens, Neutrophil, neutrophils, 0.092 uM, replicates, read-out: fold induction of chemorepulsion over media) was roughly 2 and the fold induction at 9.9 µM (Homo sapiens, Neutrophil, neutrophils, 9.9 uM, replicates, read-out: fold induction of chemorepulsion over media) was greater than 2.

Work on `COc1ccc(C2CNC(=O)C2)cc1OC1CCCC1` (stereo not drawn) [rolipram, 4-(3-cyclopentyloxy-4-methoxy-phenyl)pyrrolidin-2-one] yielded a fold induction at 0.1 µM [1] of 2.

In the case of `CNCC(O)c1ccc(O)cc1` (stereo not drawn) [synephrine], the fold induction at 0.1 µM [2] is reported as greater than 2.

In the case of `CN(C/C=C/C#CC(C)(C)C)Cc1cccc2ccccc12` [terbinafine, N,6,6-trimethyl-N-(naphthalen-1-ylmethyl)hept-2-en-4-yn-1-amine], the fold induction at 89 µM (Homo sapiens, Neutrophil, neutrophils, 89 uM, read-out: fold induction of chemorepulsion over media) is reported as greater than 2.5.
